# Test system: yeast
# Assay: Comparison of the transcript profile of clotrimazole-treated yeast with landmark transcript profiles of yeast mutants (correlation coefficient r)
# Format: cell-based
# Settings: transcript abundances relative to wild-type
# Method: FIG. 2(a-f) illustrates the correlation between the transcriptional response profile of yeast treated with clotrimazole and the transcriptional response profiles of yeast with perturbations in SWI4, RPD3, CNA1 CNA2, HMG2 and ERG11 genes. A straight line (higher correlation coefficient, r) indicates the greatest similarity.
# In a preferred embodiment, the similarity between profiles is measured by a weighted correlation coefficient, r, given by Equation 4: [formula]
# xik is […] and xjk is qjk/σjk, where qik and qjk are the logarithms of the expression ratios between the perturbed and baseline conditions for gene k in profiles i and j, respectively, and σik and σjk are the expected root mean square uncertainties in the measurements of qik and qjk, respectively. This is an optimally-weighted measure of correlation between two profiles, given the error estimate, σ, on each data point.
# In many cases, the particular gene in the pathway that is responsible for a particular phenotype can be identified. […]
compound,measurement,setting,value
Clc1ccccc1C(c1ccccc1)(c1ccccc1)n1ccnc1 [clotrimazole],correlation coefficient r between clotrimazole transcriptional response and landmark profile,landmark: yeast having a disruption of the ERG11 gene (FIG. 2f),0.96
same,correlation coefficient r between clotrimazole transcriptional response and landmark profile,landmark: yeast having a disruption of the HMG2 gene (FIG. 2e),0.83
